Key:
[1] = Stability of Compound 1 in soft gelatin capsules (sugar alcohol plasticizer) on storage, amount determined by HPLC; assay type: physicochemical
Description: Sugar alcohol solution derived from corn starch 60 parts by weight was added in an appropriate amount of water, stirred and heated. Then, gelatin 100 parts by weight was added thereto to give gelatin solution. Compound 1 was dissolved in medium chain fatty acid triglyceride (USP/NF grade) to give a liquid mixture containing 120 μg/g of compound 1. The gelatin solution and the liquid mixture were loaded on a soft capsule forming and filling machine to give capsule containing the liquid mixture, and dried to give soft gelatin capsule with an appropriate hardness.
The soft gelatin capsules obtained in the formulation example were kept at 40° C. for 6 months or at 55° C. for one month. After that, 20 capsules were swelled with purified water and ethyl acetate (HPLC grade) 10 ml was added thereto. The capsule was then cut opened and the liquid contained therein was obtained. 1 ml of the internal standard solution per 100 μg of theoretical amount of compound 1 was added to the liquid, and ethyl acetate (HPLC grade) was added so that the theoretical concentration of compound 1 was 10 μg/mL to give a sample solution.
On the other hand, about 0.025 g of standard Compound 1 was precisely weighted and added with ethyl acetate (HPLC grade) to give exactly 100 mL solution. 2 mL of the solution was measured, exactly 5 mL of the internal standard solution was added thereto and ethyl acetate (HPLC grade) was added so that the total amount was 50 mL to give the standard compound 1 solution.
The fluorescent labeling agent was added to the sample and standard solutions, stirred and reacted at room temperature.
The respective solution in an amount that theoretically gives 3.6 ng of compound 1 was loaded on the column and analyzed under the condition as follows: HPLC analysis condition:
(§1) Column: 5 mm×25 cm stainless steel column packed with octadecylsilane treated silica gel for HPLC (5 μm)
Mobile phase: mixture of acetonitrile HPLC grade: methanol HPLC grade: ammonium acetate (0.05 mol/L)
(§2) Detector: spectrophotofluorometer
The amount of the compound 1 in the sample solution was determined by using a one point calibration curve.

[2] = Stability of Compound 1 in vehicle stored at 55° C., amount determined by HPLC; assay type: physicochemical; details: for day 10, percentage based on the theoretical amount (250 μg/g): stored at 55° C.
Description: Compound 1 was dissolved in a vehicle shown in table 1 below to give 250 μg/g solution. Then, the solution was put in a hard grass container and heated at 55° C. The precise amount of Compound 1 in the solution was determined by means of HPLC (day 0). The container was kept at 55° C. for 10 days and after that the precise amount of the compound 1 was determined by means of HPLC (day 10).
The determination of the amount of the compound was carried out as follows. About 0.2 g of the sample was mixed with exactly 2 mL of internal standard solution and then with a dissolving agent shown in Table 1 to give 5 ml of sample solution. About 5 mg of the reference standard compound 1 was weighted precisely and added with acetonitrile to give exactly 50 mL solution. Exactly 1 ml of the solution was obtained and added with exactly 4 mL of the internal standard solution, and then added with the dissolving agent to give 10 mL of reference solution.
The fluorescent labeling agent was added to the respective solution, stirred and stood at room temperature for more than 30 minutes. After that, 2% acetic acid in acetonitrile was added to the solution, stirred and reacted at room temperature for more 30 minutes to give the sample and standard solutions. Then, the respective solution in an amount that theoretically gives 3.6 ng of compound 1 was loaded on the column and analyzed under the condition as follows:
as §1
Mobile phase: mixture of acetonitrile (HPLC grade) and perchlorate buffer
as §2
According to the same manner as described in Example 1, stability of the compound 1 in various vehicles was measured.

amounts of compound 1 (% vs day 0), Initial ([1]; soft gelatin capsule, gelatin 100 / sugar alcohol solution 60, 120 μg/g in medium chain fatty acid triglyceride, 40° C.): 100 % vs day 0
amounts of compound 1 (% vs day 0), Initial ([1]; soft gelatin capsule, gelatin 100 / sugar alcohol solution 60, 120 μg/g in medium chain fatty acid triglyceride, 55° C.): 100 % vs day 0
amounts of compound 1 (% vs day 0), 1 mo ([1]; soft gelatin capsule, gelatin 100 / sugar alcohol solution 60, 120 μg/g in medium chain fatty acid triglyceride, stored at 40° C., 1 mo): 99.8 % vs day 0
amounts of compound 1 (% vs day 0), 3 mo ([1]; soft gelatin capsule, gelatin 100 / sugar alcohol solution 60, 120 μg/g in medium chain fatty acid triglyceride, stored at 40° C., 3 mo): 98.0 % vs day 0
amounts of compound 1 (% vs day 0), 6 mo ([1]; soft gelatin capsule, gelatin 100 / sugar alcohol solution 60, 120 μg/g in medium chain fatty acid triglyceride, stored at 40° C., 6 mo): 98.8 % vs day 0
amounts of compound 1 (% vs day 0), 1 w ([1]; soft gelatin capsule, gelatin 100 / sugar alcohol solution 60, 120 μg/g in medium chain fatty acid triglyceride, stored at 55° C., 1 w): 100.2 % vs day 0
amounts of compound 1 (% vs day 0), 2 w ([1]; soft gelatin capsule, gelatin 100 / sugar alcohol solution 60, 120 μg/g in medium chain fatty acid triglyceride, stored at 55° C., 2 w): 100.1 % vs day 0
amounts of compound 1 (% vs day 0), 4 w ([1]; soft gelatin capsule, gelatin 100 / sugar alcohol solution 60, 120 μg/g in medium chain fatty acid triglyceride, stored at 55° C., 4 w): 99.5 % vs day 0
effect of sugar alcohol solution/polyol on stability when used as plasticizer ([1]; sugar alcohol solution/polyol used as plasticizer of soft gelatin capsule shell): will not affect the stability
stability on admixing with a fatty acid ester ([2]; admixed with a fatty acid ester such as glyceride, 55° C., 10 days): significantly improved
stability in polyol, sugar, sugar alcohol, polyethylene glycol, polysorbate 80 and fatty acid ([2]; in polyol such as glycerine, sugar, sugar alcohol, polyethylene glycol, polysorbate 80, and fatty acid, 55° C., 10 days): poor
day 0, percentage based on the theoretical amount (250 μg/g) ([2]; no vehicle (compound 1 only), 55° C.): 95.4%
day 10, percentage based on the theoretical amount (250 μg/g) ([2]; no vehicle (compound 1 only)): 82.8%
day 0, percentage based on the theoretical amount (250 μg/g) ([2]; vehicle Macrogol 400 (polyethyleneglycol), 55° C.): 92.2%
day 10, percentage based on the theoretical amount (250 μg/g) ([2]; vehicle Macrogol 400 (polyethyleneglycol)): 80.7%
day 0, percentage based on the theoretical amount (250 μg/g) ([2]; vehicle concentrated glycerin, 55° C.): 20.9%
day 10, percentage based on the theoretical amount (250 μg/g) ([2]; vehicle concentrated glycerin): 20.0%
day 0, percentage based on the theoretical amount (250 μg/g) ([2]; vehicle corn oil, 250 μg/g solution, 55° C.): 93.1%
day 10, percentage based on the theoretical amount (250 μg/g) ([2]; vehicle corn oil, 250 μg/g solution): 94.8%
day 0, percentage based on the theoretical amount (250 μg/g) ([2]; vehicle glycerine fatty acid ester (Inwitor 742), 250 μg/g solution, 55° C.): 93.3%
day 10, percentage based on the theoretical amount (250 μg/g) ([2]; vehicle glycerine fatty acid ester (Inwitor 742), 250 μg/g solution): 96.4%
day 0, percentage based on the theoretical amount (250 μg/g) ([2]; vehicle hydrogenated maltose starch syrup, 55° C.): 5.1%
day 10, percentage based on the theoretical amount (250 μg/g) ([2]; vehicle hydrogenated maltose starch syrup): 3.5%
day 0, percentage based on the theoretical amount (250 μg/g) ([2]; vehicle isopropyl palmitate, 250 μg/g solution, 55° C.): 93.9%
day 10, percentage based on the theoretical amount (250 μg/g) ([2]; vehicle isopropyl palmitate, 250 μg/g solution): 96.7%
day 0, percentage based on the theoretical amount (250 μg/g) ([2]; vehicle medium chain fatty acid triglyceride (Miglyol 812N), 250 μg/g solution, 55° C.): 94.1%
day 10, percentage based on the theoretical amount (250 μg/g) ([2]; vehicle medium chain fatty acid triglyceride (Miglyol 812N), 250 μg/g solution): 97.0%
day 0, percentage based on the theoretical amount (250 μg/g) ([2]; vehicle oleic acid, 55° C.): 61.9%
day 10, percentage based on the theoretical amount (250 μg/g) ([2]; vehicle oleic acid): 51.6%
day 0, percentage based on the theoretical amount (250 μg/g) ([2]; vehicle polysorbate 80, 55° C.): 92.1%
day 10, percentage based on the theoretical amount (250 μg/g) ([2]; vehicle polysorbate 80): 64.5%
day 0, percentage based on the theoretical amount (250 μg/g) ([2]; vehicle propyleneglycol fatty acid ester (Rikemal PO-100V), 250 μg/g solution, 55° C.): 93.9%
day 10, percentage based on the theoretical amount (250 μg/g) ([2]; vehicle propyleneglycol fatty acid ester (Rikemal PO-100V), 250 μg/g solution): 92.1%
day 0, percentage based on the theoretical amount (250 μg/g) ([2]; vehicle soy oil, 250 μg/g solution, 55° C.): 98.2%
day 10, percentage based on the theoretical amount (250 μg/g) ([2]; vehicle soy oil, 250 μg/g solution): 94.6%
day 0, percentage based on the theoretical amount (250 μg/g) ([2]; vehicle sugar alcohol solution derived from corn starch, 55° C.): 3.8%
day 10, percentage based on the theoretical amount (250 μg/g) ([2]; vehicle sugar alcohol solution derived from corn starch): 5.6%
Structure (SMILES): CCCCC(F)(F)C(=O)CCC1CCC(=O)C1CCCCCCC(=O)O (stereo not shown) [Compound 1, 11-deoxy-13,14-dihydro-15-keto-16,16-difluoro PGE1]

Reference: US20150126609A1, “PHARMACEUTICAL COMPOSITION COMPRISING 11-DEOXY -PROSTAGLANDIN COMPOUND AND METHOD FOR STABILIZING THE COMPOUND” (R-TECH UENO, LTD., priority 2007, published 2015)
